Data on 4 molecules can be found in US7812017B2, “4-substituted indole and indoline compounds” (Biovitrum AB (publ.), priority 2006, dated 2010).

Assay [1] has as its target T1, human 5-HT6 receptor (Homo sapiens, UniProt P50406). Briefly: biochemical.
For assay [2], the target named is T1, human 5-HT6 receptor. Briefly: 5-HT6 receptor binding assay ([3H]-LSD, SPA, membranes of transfected HEK293 cells). The following applies: over three experiments.

Structures can show the parent of a compound that is named as a salt.

T1 sequence (P50406 whole entry): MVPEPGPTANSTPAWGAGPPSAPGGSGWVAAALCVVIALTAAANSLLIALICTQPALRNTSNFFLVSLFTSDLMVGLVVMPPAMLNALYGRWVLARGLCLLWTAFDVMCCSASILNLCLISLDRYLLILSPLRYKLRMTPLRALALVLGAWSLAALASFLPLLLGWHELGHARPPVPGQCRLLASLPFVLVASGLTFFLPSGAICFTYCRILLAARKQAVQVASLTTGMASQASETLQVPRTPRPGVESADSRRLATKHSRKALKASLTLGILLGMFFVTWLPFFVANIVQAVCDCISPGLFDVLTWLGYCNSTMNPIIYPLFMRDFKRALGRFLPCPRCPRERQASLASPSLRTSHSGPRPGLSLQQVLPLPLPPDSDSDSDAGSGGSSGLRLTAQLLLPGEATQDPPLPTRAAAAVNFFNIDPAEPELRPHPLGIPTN

In turn, `O=S(=O)(c1ccccc1)n1ccc2c(CN3CCNCC3)cccc21` [Example 1, 1-(Phenylsulfonyl)-4-(piperazin-1-ylmethyl)-1H-indole hydrochloride] came in with a Ki at human 5-HT6 receptor [1] of 1.8 nM.
As to `NCCc1c[nH]c2ccc(O)cc12` [Example 5-HT, 5-hydroxytryptamine], the Hill coefficient at human 5-HT6 receptor [2] is reported as 0.94 (SD 0.09).
Molecule `CN(C)Cc1cccc2c1ccn2S(=O)(=O)c1ccccc1` [Example 47, N,N-Dimethyl-1-[1-(phenylsulfonyl)-1H-indol-4-yl]methanamine trifluoroacetate] had a Ki at human 5-HT6 receptor [1] of 3.3 nM. In other words, the single-digit nanomolar range.
For `O=S(=O)(c1ccccc1)n1ccc2c(CN3CCC3)cccc21` [Example 87, 4-Azetidin-1-ylmethyl)-1-(phenylsulfonyl)-1H-indole trifluoroacetate], affinity on human 5-HT6 receptor [1] was put at a Ki of 0.9 nM. This Ki lies about 3.7-fold lower than the previous one.
